Target: T1, GAβ-dependent amyloid fibril formation (Human Aβ1-40 + GM1-containing liposome) (Homo sapiens, UniProt P05067)
T1 construct: Human Aβ1-40 (cat. #4307-v, prepared by Peptide Institute); purchased Peptide Institute 4307-v
Experiment: Thioflavin T (ThT) assay of GAβ-dependent amyloid fibril formation (Aβ1-40 with GM1-containing liposome)
Format: biochemical
Settings: @25 μM; read-out: ThT Inhibitory activity (% inhibition)
Protocol: <3. Evaluation of the Compounds Based on the Inhibitory Activity Against Amyloid Fibril Formation in Thioflabin T (ThT) Assay>
Inhibitory activity against GAβ-dependent amyloid fibril formation of the above compounds 1 to 133 and 142 to 267 were evaluated in ThT assay.
(1) Preparation of Aβ Solution
Human Aβ1-40 (cat. #4307-v, prepared by Peptide Institute) was dissolved in a 0.02% ammonia solution (400 μM), and the mixture was treated in an ultracentrifuge (S110AT rotor, Hitachi) at 100,000 rpm for 3 hours. Approximately two-thirds of the upper layer of the supernatant was recovered and protein concentration was measured. The Aβ solution was aliquoted and stored at −80° C. until use, was melted immediately before use, and was diluted to 75 μM using phosphate buffer (PBS: cat. #10010, manufactured by Life Technologies).
(2) Preparation of GM1-Containing Liposome
Using a mixed solution of chloroform/methanol (1:1) as a solvent, a mixed solution of 100 mM each of cholesterol and sphingomyelin (both manufactured by Sigma-Aldrich) was prepared. To this mixed solution, GM 1 (cat. #1061, manufactured by Matreya Co.) was dissolved to make a solution of 50 mM concentration. This lipid mixed solution was aliquoted into glass test tubes and stored at −20° C. until use, was melted before use, was mixed with chloroform/methanol mixture (1:1) and mixed, and then the solvent was removed by applying nitrogen gas to the suspension. The dried lipid mixture was resuspended in PBS to be a GM1 concentration of 2.5 mM, and frozen and thawed 5 times with liquid nitrogen. The lipid suspension was centrifuged at 15,000 rpm for 10 minutes and the precipitate was resuspended in PBS to be a GM1 concentration of 2.5 mM. Using an ultrasonic crusher (XL-2000, MISONIX Co., Ltd.) equipped with a microchip, ultrasonic treatment was repeated on ice for 10 seconds until the suspension became transparent, and GM1-containing liposome was prepared. Immediately prior to use, PBS was added and diluted to a GM 1 concentration of 75 μM.
(3) Preparation of Compound Solution
Compounds 1 to 133 and 142 to 267 were prepared as 10 mM and 2 mM solution in DMSO, respectively. And each solution was diluted to 75 μM or 15 μM with PBS immediately prior to use.
(4) GAβ-Dependent Amyloid Fibril Formation
To a 96-well microplate, 5 μl each of the 75 μM Aβ solution prepared above (1), the compound solution prepared in (3) or 0.75% DMSO was mixed and incubated at room temperature for 10 minutes. Then, 5 μl each of 750 μM GM1-containing liposome prepared in (2) was added to each well and incubated at 37° C. for 18 hours.
ThT (manufactured by Sigma-Aldrich) was adjusted to 5 μM using 50 mM glycine-NaOH buffer (pH 8.5). Immediately before measurement, 10 μl from each well of (4) was transferred to a 96-well black plate. 50 μl of 5 μM ThT solution was added from each injector to each well using a multi-plate reader (ARVO-HTS, manufactured by Perkin Elmer), and then the optimal fluorescence of ThT bound to amyloid fiber (excitation wavelength 430 nm, fluorescence wavelength 490 nm) was measured.
The fluorescence intensity of ThT indicates the degree of amyloid fibrils formation. By calculating the ratio of the ThT fluorescence intensity between addition of the compound and without addition of the compound, the inhibition rate against amyloid fibril formation by the compound was calculated.

T1 sequence (P05067 672-711 limits assumed): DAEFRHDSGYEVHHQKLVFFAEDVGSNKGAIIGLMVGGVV

Row | SMILES | inhibition at 25 µM
1 | CC(=O)c1ccc(-c2noc([C@H](CO)NC(=O)c3ccccc3)n2)cc1 [Compound 153, N-[(1S)-1-[3-(4-acetylphenyl)-1,2,4-oxadiazol-5-yl]-2-hydroxyethyl] benzamide] | 76%
2 | O=C(N[C@@H](CO)c1nc(-c2ccc(C(F)F)cc2)no1)c1ccc(Cl)cc1 [Compound 167] | 98%
3 | O=C(N[C@@H](CO)c1nc(-c2cccs2)no1)c1ccc(F)cc1 [Compound 178, 4-fluoro-N-[(1S)-2-hydroxy-1-[3-(thiophen-2-yl)-1,2,4-oxadiazol-5-yl]ethyl]benzamide] | 61%

Same assay, conditions: inhibition rate against amyloid fibril formation, final concentration of the compound 25 μM; read-out: Inhibitory activity ABC evaluation

Row | SMILES | inhibition at 25 µM
4 | O=C(N[C@@H](CO)c1nc(-c2cccc(C(F)(F)F)c2)no1)c1ccc(N2CCOCC2)cc1 [Compound 220] | > 80%
5 | O[C@@H]1C[C@@H](c2nc(-c3ccc(OC(F)(F)F)cc3)no2)N(Cc2ccc(Cl)cc2)C1 [Compound 77, (3R,5S)-1-(4-chlorobenzyl)-5-[3-{4-(trifluoro-methoxy)phenyl}-1,2,4-oxadiazol-5-yl]pyrrolidin-3-ol] | 40 to 80%
6 | O=C1CC(c2nc(-c3ccc(F)cc3)no2)CN1c1ccc(Cl)cc1 (stereo not shown) [Compound 61, 1-(4-chlorophenyl)-4-{3-(4-fluorophenyl)-1,2,4-oxadiazol-5-yl} pyrrolidin-2-one] | 40 to 80%
7 | O=C(N[C@H](CO)c1nc(-c2ccc(C(F)(F)F)cc2)no1)c1ccccc1 [Compound 213, N-[(1R)-2-hydroxy-1-{3-[4-(trifluoromethyl)phenyl]-1,2,4-oxadiazol-5-yl}ethyl]benzamide] | < 40%
8 | C=C(NC(=O)c1ccc(Cl)cc1)c1nnc(-c2ccc(OC(F)(F)F)cc2)o1 [Compound 115, 4-chloro-N-(1-(5-(4-(trifluoromethoxy)phenyl)-1,3,4-oxadiazol-2-yl)vinyl)benzamide] | < 40%
9 | CS(=O)(=O)Nc1ccc(-c2nnc([C@@H](CO)NC(=O)c3ccc(Cl)cc3)o2)cc1 [Compound 108, (R)-4-chloro-N-(2-hydroxy-1-(5-(4-(methyl-sulfonamido)phenyl)-1,3,4-oxzdiazol-2-yl)ethyl)benzamide] | < 40%
10 | O=C1CC(c2nnn(-c3ccc(OC(F)(F)F)cc3)n2)CN1c1ccc(Cl)cc1 (stereo not shown) [Compound 122, 1-(4-chlorophenyl)-4-{2-[4-(trifluoromethoxy)phenyl]-2H-tetrazol-5-yl}pyrrolidin-2-one] | < 40%
11 | COc1ccc2[nH]cc(-c3noc([C@H](CO)NC(=O)c4ccc(F)cc4)n3)c2c1 [Compound 261, 4-fluoro-N-[(1S)-2-hydroxy-1-[3-(5-methoxy-1H-indol-3-yl)-1,2,4-oxadiazol-5-yl]ethyl] benzamide] | 40 to 80%
12 | O=C(N[C@@H](CO)c1nc(-c2ccoc2Cl)no1)c1ccc(F)cc1 [Compound 255, N-[(1S)-1-[3-(2-chlorofuran-3-yl)-1,2,4-oxadiazol-5-yl]-2-hydroxyethyl]-4-fluorobenzamide] | 40 to 80%
13 | O=C(c1ccc(Cl)cc1)N1C[C@@H](O)C[C@H]1c1nc(-c2ccc(OC(F)(F)F)cc2)no1 [Compound 56, (4-chlorophenyl) ((2S,4S)-4-hydroxy-2-[3-{4-(trifluoro-methoxy)phenyl}-1,2,4-oxadiazol-5-yl]pyrrolidin-1-yl)methanone] | < 40%
14 | O=C(c1cccc(Cl)c1)N1C[C@H](O)C[C@H]1c1nc(-c2ccc(OC(F)(F)F)cc2)no1 [Compound 58, (3-chlorophenyl) ((2S,4R)-4-hydroxy-2-[3-{4-(trifluoro-methoxy)phenyl}-1,2,4-oxadiazol-5-yl]pyrrolidin-1-yl)methanone] | 40 to 80%
15 | O=C(N[C@@H](CO)c1nc(-c2c[nH]c3ccc(Cl)cc23)no1)c1ccc(Cl)cn1 [Compound 254, 5-chloro-N-[(1S)-1-[3-(5-chloro-1H-indol-3-yl)-1,2,4-oxadiazol-5-yl]-2-hydroxyethyl] pyridine-2-carboxamide] | 40 to 80%
16 | CC(=O)c1ccc(-c2noc([C@H](CO)NC(=O)c3ccccc3)n2)cc1 [Compound 153, N-[(1S)-1-[3-(4-acetylphenyl)-1,2,4-oxadiazol-5-yl]-2-hydroxyethyl] benzamide] | 40 to 80%
17 | COc1ccc(-c2noc(C(C)(C)N(C)C(=O)c3ccc(Cl)cc3)n2)cc1 [Compound 22, 4-chloro-N-[2-{3-(4-methoxyphenyl)-1,2,4-oxadiazol-5-yl}propan-2-yl]-N-methyl-benzamide] | < 40%
18 | Cn1cc(-c2noc([C@H](CO)NC(=O)c3ccc(F)cc3)n2)c2ccccc21 [Compound 245, 4-fluoro-N-[(1S)-2-hydroxy-1-[3-(1-methyl-1H-3-yl)-1,2,4-oxadiazol-5-yl]ethyl]benzamide] | 40 to 80%
19 | O=C(NC1(c2nc(-c3ccc(OC(F)(F)F)cc3)no2)CCCC1)c1ccc(F)cc1 [Compound 30, 4-fluoro-N-(1-[3-{4-(trifluoromethoxy)phenyl}-1,2,4-oxadiazol-5-yl]cyclopentyl) benzamide] | < 40%
20 | NC(Cc1c[nH]cn1)c1nc(-c2ccc(OC(F)(F)F)cc2)no1 (stereo not shown) [Compound 37, 2-(1H-imidazol-4-yl)-1-[3-{4-(trifluoromethoxy)phenyl}-1,2,4-oxadiazol-5-yl]ethan-1-amine] | < 40%
21 | CCCN(Cc1cccc(Cl)c1)C(=O)CCc1nc(-c2ccc(OC)cc2)no1 [Compound 9, N-(3-chlorobenzyl)-3-{3-(4-methoxyphenyl)-1,2,4-oxadiazol-5-yl}-N-propylpropanamide] | 40 to 80%
22 | O=C(/C=C/c1ccc(F)cc1)N[C@@H](CO)c1nc(-c2ccc(C(F)(F)F)cc2)no1 [Compound 208, (2E)-3-(4-fluorophenyl)-N-[(1S)-2-hydroxy-1-{3-[4-(trifluoromethyl)phenyl]-1,2,4-oxadiazol-5-yl}ethyl]prop-2-enamide] | 40 to 80%
23 | O=C(N[C@@H](CO)c1nc(-c2ccc(C(F)F)cc2)no1)c1ccc(Cl)cc1 [Compound 167] | > 80%
24 | O=C(N[C@@H](CO)c1nc(-c2ccc(Br)cc2)no1)c1ccc(F)cc1 [Compound 163, N-[(1S)-1-[3-(4-bromophenyl)-1,2,4-oxadiazol-5-yl]-2-hydroxyethyl]-4-fluorobenzamide] | 40 to 80%
25 | O=C(N[C@@H](CO)c1nc(-c2ccc(O)c(F)c2)no1)c1ccc(Cl)cc1 [Compound 99, (S)-4-chloro-N-(1-(3-(3-fluoro-4-hydroxyphenyl)-1,2,4-oxadiazol-5-yl)-2-hydroxy-ethyl)benzamide] | 40 to 80%
26 | O=C(Nc1ccc(Cl)cc1)NC1(c2nc(-c3ccc(OC(F)(F)F)cc3)no2)CCCC1 [Compound 36, 1-(4-chlorophenyl)-3-(1-[3-{4-(trifluoromethoxy)phenyl}-1,2,4-oxadiazol-5-yl]cyclopentyl)urea] | < 40%
27 | O=C(NC(CO)c1nc(-c2ccc(C(F)(F)F)cc2)no1)c1ccc(C(F)(F)F)cc1 (stereo not shown) [Compound 188, N-(2-hydroxy-1-{3-[4-(trifluoromethyl)phenyl]-1,2,4-oxadiazol-5-yl}ethyl)-4-(trifluoromethyl) benzamide] | > 80%
28 | O=C1CC(c2nc(-c3ccncc3)no2)CN1c1ccc(Cl)cc1 (stereo not shown) [Compound 44, 1-(4-chlorophenyl)-4-{3-(pyridin-4-yl)-1,2,4-oxadiazol-5-yl} pyrrolidin-2-one] | < 40%
29 | O=C(N[C@@H](CO)c1nc(-c2ccc(OCCN3CCOCC3)cc2)no1)c1ccccc1 [Compound 158, N-[(1S)-2-hydroxy-1-(3-{4-[2-(morpholin-4-yl)ethoxy]phenyl}-1,2,4-oxadiazol-5-yl)ethyl] benzamide] | 40 to 80%
30 | O=C(N[C@@H](CO)c1nc(-c2cccs2)no1)c1ccc(F)cc1 [Compound 178, 4-fluoro-N-[(1S)-2-hydroxy-1-[3-(thiophen-2-yl)-1,2,4-oxadiazol-5-yl]ethyl]benzamide] | 40 to 80%
31 | CCN(CC)CCOc1ccc(C(=O)N[C@@H](CO)c2nc(-c3ccc(OC(F)(F)F)cc3)no2)cc1 [Compound 171, 4-[2-(diethylamino)ethoxy]-N-[(1S)-2-hydroxy-1-{3-[4-(trifluoromethoxy)phenyl]-1,2,4-oxadiazol-5-yl}ethyl] benzamide] | < 40%
